According to patent publication US20100204142A1, “USE OF THE PEPTIDE PHPFHLFVY (RENIN INHIBITOR) AS A THERAPEUTIC AGENT” (priority 2007, published 2010):
Where no end group is shown, it is not given here.

What was measured:
HepG2-2.2.15 cells = test: Cytotoxicity in HepG2-2.2.15 cells (dye uptake); format: cell-based; settings: dye uptake assay, % cell control
Protocol: HepG2-2.2.15 cells were plated in 96-well microtiter plates. After 16-24 hours the confluent monolayer of HepG2-2.2.15 cells was washed and the medium was replaced with complete medium containing test peptide—10 micrograms per ml—in duplicate. Lamivudine (3TC) was used as the positive control, while media alone was added to the cells as a negative control (virus control). Three days later the culture medium was replaced with fresh medium containing the peptide. Six days following the initial administration of the peptide, the cell culture supernatants was collected, treated with pronase and DNAse and then used in a real-time quantitative TaqMan PCR assay. The PCR-amplified HBV DNA was detected in real-time by monitoring increases in fluorescence signals that result from the exonucleolytic degradation of a quenched fluorescence probe molecule that hybridizes to the amplified HBV DNA. For each PCR amplification, a standard curve was simultaneously generated using dilutions of purified HBV DNA. Antiviral activity was calculated from the reduction in HBV DNA levels (% virus control). A novel dye uptake assay was then employed to measure cell viability, which is used to calculate toxicity (% cell control).

CEM-SS cells = test: Cytotoxicity in CEM-SS cells (MTS); settings: CEM-SS cells plus peptide only, peptide 10 micrograms per ml
[1] = tested on: HIV-1 infected CEM-SS cells (strain HIV-1IIIB); test: HIV-1 antiviral assay (CPE reduction, MTS); format: cell-based; settings: peptide 10 micrograms per ml, 6 days post-infection
Pseudomonas aeruginosa = format: cell-based; settings: 5 micrograms per ml
MRSA = settings: 5 micrograms per ml
in vitro = format: cell-based; settings: human, MRC-5 cells
Protocol: The following day, peptide was added and tested in duplicates.

Streptococcus pneumoniae = format: cell-based; settings: 5 micrograms per ml

## Nc1ccn([C@@H]2CS[C@H](CO)O2)c(=O)n1 [3TC, Lamivudine, reference compound]
HepG2-2.2.15 cells
  % Cell viability: 95.8%

## Cc1cn([C@H]2C[C@H](N=[N+]=[N-])[C@@H](CO)O2)c(=O)[nH]c1=O [AZT]
CEM-SS cells
  % Cell viability: 97%
[1]
  % CPE reduction in HIV-1 infected CEM-SS cells: 99%

## PHPFHLFVY-OH [Renin inhibitor]
Pseudomonas aeruginosa
  % inhibition: 0.0%
MRSA
  % inhibition: 0.0%
In vitro
  viability at 144 h: 100%
Streptococcus pneumoniae
  % inhibition: 0.0%
